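Dose response: 5 concentrations. Exposure: 48 h. Format: 96-well plates. Endpoint: linear interpolation; highest concentration if not reached. Here, GI50 denotes the concentration required for 50% inhibition of growth.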 Calls of active or inactive are those of the source. Cut-off read from the data, not from the text of the source: active = GI50 up to about 1.1 µM and inactive = higher.
Tests used:
Experiment in all cases: NCI tumour cell line growth inhibition, 48 h
SK-MEL-28 = test system: SK-MEL-28
HCT-15 = test system: HCT-15
SK-MEL-5 = test system: SK-MEL-5
NCI-H460 = test system: NCI-H460
A549 = test system: A549
IGROV-1 = test system: IGROV-1
TK-10 = test system: TK-10
NCI/ADR-RES = test system: NCI/ADR-RES
SF-268 = test system: SF-268
SNB-75 = test system: SNB-75
SW-620 = test system: SW-620
A498 = test system: A498
CCRF-CEM = test system: CCRF-CEM
HOP-92 = test system: HOP-92
OVCAR-8 = test system: OVCAR-8
HCT-116 = test system: HCT-116
HOP-62 = test system: HOP-62
CAKI-1 = test system: CAKI-1
SR = test system: SR
RPMI-8226 = test system: RPMI-8226

SMILES	GI50 (SK-MEL-28)	GI50 (HCT-15)	GI50 (SK-MEL-5)	GI50 (NCI-H460)	GI50 (A549)	GI50 (IGROV-1)	GI50 (TK-10)	GI50 (NCI/ADR-RES)	GI50 (SF-268)	GI50 (SNB-75)	GI50 (SW-620)	GI50 (A498)	GI50 (CCRF-CEM)	GI50 (HOP-92)	GI50 (OVCAR-8)	GI50 (HCT-116)	GI50 (HOP-62)	GI50 (CAKI-1)	GI50 (SR)	GI50 (RPMI-8226)
O=C(CC(Cc1ccccc1)c1ccc(Oc2ccccc2)cc1)Nc1cccc(Cl)c1 (stereo not given)	9.16 µM (inactive)	3.64 µM	11.3 µM (inactive)	3.83 µM (inactive)	3.9 µM (inactive)	2.9 µM (inactive)	10 µM (inactive)	3.62 µM (inactive)	19.2 µM (inactive)	6.73 µM (inactive)	4.42 µM (inactive)	4.47 µM (inactive)	3.49 µM (inactive)	1.9 µM (inactive)	3.96 µM (inactive)	3.6 µM (inactive)	3.83 µM (inactive)	3.66 µM (inactive)	4.94 µM (inactive)	3.72 µM (inactive)
CC(C)C(=O)/C=C/c1c(Cl)cccc1Cl	5.81 µM (inactive)	4.55 µM	4.95 µM (inactive)	2.18 µM (inactive)	4.15 µM (inactive)	3.75 µM (inactive)	12.1 µM (inactive)	3.04 µM (inactive)	2.39 µM (inactive)	2.25 µM (inactive)	2.98 µM (inactive)	21.2 µM (inactive)	11.6 µM (inactive)	12.9 µM (inactive)	3.86 µM (inactive)	1.64 µM (inactive)	5.83 µM (inactive)	3.47 µM (inactive)	1.91 µM (inactive)	> 100 µM (inactive)
CCOC(=O)Oc1cc2ccsc2c2c1c1ccccc1n2C(=O)OCC	> 100 µM (inactive)	26.2 µM	63.7 µM (inactive)	30.9 µM (inactive)	48.9 µM (inactive)	> 100 µM (inactive)	50 µM (inactive)	38 µM (inactive)	64 µM (inactive)	27.1 µM (inactive)	94.8 µM (inactive)	18.4 µM (inactive)	> 100 µM (inactive)	22 µM (inactive)	87.7 µM (inactive)	54.6 µM (inactive)	37.3 µM (inactive)	58.2 µM (inactive)	> 100 µM (inactive)	82 µM (inactive)
CC(=O)Nc1ccc(/N=C2\C(c3ccccc3)=C(SC3=C(c4ccccc4)/C(=N\c4ccc(NC(C)=O)cc4)c4ccccc43)c3ccccc32)cc1	32.7 µM (inactive)	44.5 µM	15.8 µM (inactive)	26.7 µM (inactive)	37.2 µM (inactive)	32.1 µM (inactive)	69.7 µM (inactive)	27.2 µM (inactive)	33.8 µM (inactive)	23.2 µM (inactive)	40.2 µM (inactive)	20.6 µM (inactive)	24.7 µM (inactive)	27 µM (inactive)	29.6 µM (inactive)	34.4 µM (inactive)	29.7 µM (inactive)	31.4 µM (inactive)	23.8 µM (inactive)	19.4 µM (inactive)
Cc1ccc2nc3[nH]nc(N)c3nc2c1	> 100 µM (inactive)	91 µM	> 100 µM (inactive)	> 100 µM (inactive)	> 100 µM (inactive)	37 µM (inactive)	28 µM (inactive)	> 100 µM (inactive)	> 100 µM (inactive)	64 µM (inactive)	> 100 µM (inactive)	85.3 µM (inactive)	> 100 µM (inactive)	87.1 µM (inactive)	> 100 µM (inactive)	> 100 µM (inactive)	> 100 µM (inactive)	42.6 µM (inactive)	> 100 µM (inactive)	72.6 µM (inactive)
